PubChem BioAssay AID2060910 (Molecular Pharmacology Branch, DTP, NCI, 2025)

System: 242566-281-R-J2-PDC complex spheroid viability
Assay: Anticancer human tumor 242566-281-R-J2-PDC patient-derived pancreatic carcinoma cell line growth inhibition [RAS]
Conditions: for viability, T/C: stronger effect = lower value; active = viability on the fitted dose curve at most 10% of control; inactive = the rest
Procedure, shortened: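 Multi-cell-type spheroids: tumor cells plus HUVEC endothelial cells and mesenchymal stem cells. RAS-pathway inhibitors were combined with targeted agents, each dosed in half-log steps down from clinical Cmax, or from 10 microM when Cmax was unknown.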

[1] = curve of first compound, second compound 0.000949 µM
[2] = curve of first compound, second compound 0.003 µM
[3] = curve of first compound, second compound 0.00949 µM
[4] = curve of first compound, second compound 0.03 µM
[5] = curve of first compound, second compound 0.0949 µM
[6] = curve of first compound, second compound 0.3 µM
[7] = second compound 0.000949 µM, first compound 0.0316 µM
[8] = second compound 0.000949 µM, first compound 0.1 µM
[9] = second compound 0.000949 µM, first compound 0.316 µM
[10] = second compound 0.000949 µM, first compound 1 µM
[11] = second compound 0.003 µM, first compound 0.0316 µM
[12] = second compound 0.003 µM, first compound 0.1 µM
[13] = second compound 0.003 µM, first compound 0.316 µM
[14] = second compound 0.003 µM, first compound 1 µM
[15] = second compound 0.00949 µM, first compound 0.0316 µM
[16] = second compound 0.00949 µM, first compound 0.1 µM
[17] = second compound 0.00949 µM, first compound 0.316 µM
[18] = second compound 0.00949 µM, first compound 1 µM
[19] = second compound 0.03 µM, first compound 0.0316 µM
[20] = second compound 0.03 µM, first compound 0.1 µM
[21] = second compound 0.03 µM, first compound 0.316 µM
[22] = second compound 0.03 µM, first compound 1 µM
[23] = second compound 0.0949 µM, first compound 0.0316 µM
[24] = second compound 0.0949 µM, first compound 0.1 µM
[25] = second compound 0.0949 µM, first compound 0.316 µM
[26] = second compound 0.0949 µM, first compound 1 µM
[27] = second compound 0.3 µM, first compound 0.0316 µM
[28] = second compound 0.3 µM, first compound 0.1 µM
[29] = second compound 0.3 µM, first compound 0.316 µM
[30] = second compound 0.3 µM, first compound 1 µM
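Also: spheroids exposed to compound for 7 days before readout.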
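For viability, T/C in this document: 100% = DMSO vehicle control wells.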

CC(Nc1ccc2c(c1)OCCn1cc(N3C(=O)OCC3C(F)F)nc1-2)C(N)=O (stereo unspecified) + CCn1c(-c2cc(N3CCN(C)CC3)cnc2C(C)OC)c2c3cc(ccc31)-c1csc(n1)CC(NC(=O)C1CC1C)C(=O)N1CCCC(N1)C(=O)OCC(C)(C)C2
< 0.0316 µM: IC50 [3] | IC50 [4] | IC50 [5] | IC50 [6]
inactive: viability, T/C [7] 85.8% | viability, T/C [8] 85.2% | viability, T/C [9] 39.8% | viability, T/C [10] 39.1% | viability, T/C (second compound 0.000949 µM, first compound 3.16 µM) 26.5% | viability, T/C (second compound 0.000949 µM, first compound 10 µM) 11.5% | viability, T/C [11] 70.6% | viability, T/C [12] 47.3% | viability, T/C [13] 32.9% | viability, T/C [14] 22.4% | viability, T/C (second compound 0.003 µM, first compound 3.16 µM) 14.5% | viability, T/C [15] 40.7% | viability, T/C [16] 25.1% | viability, T/C [17] 18.2% | viability, T/C [18] 11.3% | viability, T/C [19] 26.4% | viability, T/C [20] 17.9% | viability, T/C [21] 10.6% | viability, T/C [23] 16.7% | viability, T/C [24] 11.5% | viability, T/C [27] 16.5% | viability, T/C [28] 11.3%
active: viability, T/C (second compound 0.003 µM, first compound 10 µM) 5.29% | viability, T/C (second compound 0.00949 µM, first compound 3.16 µM) 4.65% | viability, T/C (second compound 0.00949 µM, first compound 10 µM) 3.19% | viability, T/C [22] 5.37% | viability, T/C (second compound 0.03 µM, first compound 3.16 µM) 1.87% | viability, T/C (second compound 0.03 µM, first compound 10 µM) 1.22% | viability, T/C [25] 7.81% | viability, T/C [26] 3.68% | viability, T/C (second compound 0.0949 µM, first compound 3.16 µM) 1.35% | viability, T/C (second compound 0.0949 µM, first compound 10 µM) 0.91% | viability, T/C [29] 5.47% | viability, T/C [30] 3.22% | viability, T/C (second compound 0.3 µM, first compound 3.16 µM) 1.55% | viability, T/C (second compound 0.3 µM, first compound 10 µM) 1.07%
0.364 µM: IC50 [1]
0.0951 µM: IC50 [2]

CC1(C)CCC(Nc2ncc(C(F)(F)F)c(-c3c[nH]c4c(P(C)(C)=O)c(C#N)ccc34)n2)CN1 (stereo unspecified)
inactive: viability, T/C (compound 0.03 µM) 110% [middle of 4 runs]
> 0.3 µM: IC50 (curve of compound)

O=C(c1ccc(F)c(F)c1Nc1ccc(I)cc1F)N1CC(O)([C@@H]2CCCCN2)C1
inactive: viability, T/C (compound 0.1 µM) 64.1% [middle of 4 runs] | viability, T/C (compound 0.316 µM) 41.3% [middle of 4 runs]

Nc1ccn(C2OC(CO)C(O)C2(F)F)c(=O)n1 (stereo unspecified) + C=CC(=O)N1CCN(c2nc(OCC3CCCN3C)nc3c(F)c(-c4nc(N)cc(C)c4C(F)(F)F)c(Cl)cc23)C(C)C1
0.0972 µM: IC50 (curve of first compound, second compound 1 µM)
0.112 µM: IC50 (curve of first compound, second compound 0.01 µM)
0.0573 µM: IC50 (curve of first compound, second compound 0.316 µM)
0.108 µM: IC50 (curve of first compound, second compound 0.00316 µM)
inactive: viability, T/C (second compound 0.00316 µM, first compound 0.00316 µM) 101% | viability, T/C (second compound 0.00316 µM, first compound 0.01 µM) 118% | viability, T/C (second compound 0.00316 µM, first compound 0.0316 µM) 92.6% | viability, T/C (second compound 0.00316 µM, first compound 0.1 µM) 52.1% | viability, T/C (second compound 0.00316 µM, first compound 0.316 µM) 25.9% | viability, T/C (second compound 0.00316 µM, first compound 1 µM) 18.4% | viability, T/C (second compound 0.01 µM, first compound 0.00316 µM) 123% | viability, T/C (second compound 0.01 µM, first compound 0.01 µM) 128% | viability, T/C (second compound 0.01 µM, first compound 0.0316 µM) 93.6% | viability, T/C (second compound 0.01 µM, first compound 0.1 µM) 53.8% | viability, T/C (second compound 0.01 µM, first compound 0.316 µM) 26% | viability, T/C (second compound 0.01 µM, first compound 1 µM) 16.2% | viability, T/C (second compound 0.0316 µM, first compound 0.00316 µM) 103% | viability, T/C (second compound 0.0316 µM, first compound 0.01 µM) 147% | viability, T/C (second compound 0.0316 µM, first compound 0.0316 µM) 74.3% | viability, T/C (second compound 0.0316 µM, first compound 0.1 µM) 60% | viability, T/C (second compound 0.0316 µM, first compound 0.316 µM) 21.6% | viability, T/C (second compound 0.0316 µM, first compound 1 µM) 15.8% | viability, T/C (second compound 0.1 µM, first compound 0.00316 µM) 134% | viability, T/C (second compound 0.1 µM, first compound 0.01 µM) 124% | viability, T/C (second compound 0.1 µM, first compound 0.0316 µM) 91.3% | viability, T/C (second compound 0.1 µM, first compound 0.1 µM) 50.8% | viability, T/C (second compound 0.1 µM, first compound 0.316 µM) 21.5% | viability, T/C (second compound 0.1 µM, first compound 1 µM) 19.1% | viability, T/C (second compound 0.316 µM, first compound 0.00316 µM) 115% | viability, T/C (second compound 0.316 µM, first compound 0.01 µM) 160% | viability, T/C (second compound 0.316 µM, first compound 0.0316 µM) 75.5% | viability, T/C (second compound 0.316 µM, first compound 0.1 µM) 41.9% | viability, T/C (second compound 0.316 µM, first compound 0.316 µM) 20.6% | viability, T/C (second compound 0.316 µM, first compound 1 µM) 15.7% | viability, T/C (second compound 1 µM, first compound 0.00316 µM) 115% | viability, T/C (second compound 1 µM, first compound 0.01 µM) 102% | viability, T/C (second compound 1 µM, first compound 0.0316 µM) 83.6% | viability, T/C (second compound 1 µM, first compound 0.1 µM) 50.9% | viability, T/C (second compound 1 µM, first compound 0.316 µM) 22% | viability, T/C (second compound 1 µM, first compound 1 µM) 18.9%
0.0969 µM: IC50 (curve of first compound, second compound 0.1 µM)
0.103 µM: IC50 (curve of first compound, second compound 0.0316 µM)

Nc1ccn(C2OC(CO)C(O)C2(F)F)c(=O)n1 (stereo unspecified) + CCn1c(-c2cc(N3CCN(C)CC3)cnc2C(C)OC)c2c3cc(ccc31)-c1csc(n1)CC(NC(=O)C1CC1C)C(=O)N1CCCC(N1)C(=O)OCC(C)(C)C2
inactive: viability, T/C (second compound 0.000949 µM, first compound 0.00316 µM) 94.2% | viability, T/C (second compound 0.000949 µM, first compound 0.01 µM) 87.7% | viability, T/C [7] 46.2% | viability, T/C [8] 36.5% | viability, T/C [9] 20.9% | viability, T/C [10] 10.3% | viability, T/C (second compound 0.003 µM, first compound 0.00316 µM) 78.2% | viability, T/C (second compound 0.003 µM, first compound 0.01 µM) 57.9% | viability, T/C [11] 43.5% | viability, T/C [12] 35.3% | viability, T/C [13] 24.3% | viability, T/C [14] 10.9% | viability, T/C (second compound 0.00949 µM, first compound 0.00316 µM) 50.5% | viability, T/C (second compound 0.00949 µM, first compound 0.01 µM) 36.2% | viability, T/C [15] 38.3% | viability, T/C [16] 28.5% | viability, T/C [17] 20.7% | viability, T/C [18] 16.6% | viability, T/C (second compound 0.03 µM, first compound 0.00316 µM) 30.6% | viability, T/C (second compound 0.03 µM, first compound 0.01 µM) 27.1% | viability, T/C [19] 25.5% | viability, T/C [20] 20.9% | viability, T/C [21] 16.9% | viability, T/C [22] 16.7% | viability, T/C (second compound 0.0949 µM, first compound 0.00316 µM) 22.3% | viability, T/C (second compound 0.0949 µM, first compound 0.01 µM) 21.4% | viability, T/C [23] 21.3% | viability, T/C [24] 19.2% | viability, T/C [25] 11.7% | viability, T/C [26] 13.9% | viability, T/C (second compound 0.3 µM, first compound 0.00316 µM) 19.7% | viability, T/C (second compound 0.3 µM, first compound 0.01 µM) 18.2% | viability, T/C [27] 18.5% | viability, T/C [28] 14.5% | viability, T/C [29] 13.1% | viability, T/C [30] 14.4%
< 0.00316 µM: IC50 [3] | IC50 [4] | IC50 [5] | IC50 [6]
0.0228 µM: IC50 [2]
0.0401 µM: IC50 [1]

CCc1c2c(nc3ccc(O)cc13)-c1cc3c(c(=O)n1C2)COC(=O)[C@]3(O)CC
30.9 nM [middle of 4 runs]: IC50 (curve of compound)
inactive: viability, T/C (compound 0.003 µM) 97% [middle of 4 runs] | viability, T/C (compound 0.00949 µM) 76% [middle of 4 runs] | viability, T/C (compound 0.03 µM) 49% [middle of 4 runs] | viability, T/C (compound 0.0949 µM) 24.7% [middle of 4 runs]
12.9% [middle of 4 runs]: viability, T/C (compound 0.3 µM)
